Measurements from US20260265265A1, “NOVEL BENZIMIDAZOLONE DERIVATIVE COMPOUND AS AUTOTAXIN INHIBITOR” (LG CHEM, LTD., priority 2023, published 2026).

The compounds below were run against T1, Recombinant Human ENPP-2/Autotaxin (Homo sapiens, UniProt Q13822) (assay: LysoPLD activity measurement (autotaxin enzyme inhibition, choline release, TOOS reagent)). Details: LysoPLD inhibitory activity; substrate 14:0 LysoPC; absorbance at 555 nm.
T1 construct: purchased R&D systems 5255-EN
Format: biochemical
Protocol: Such a measurement method is a method of measuring the amount of choline, which is a reaction product in an autotaxin enzyme reaction, using a TOOS reagent. Depending on the activity of the autotaxin inhibitor, the amount of choline produced as a reaction product varies, which affects the final absorbance.
After 30 min, 14:0 LysoPC of the substrate diluted to a concentration of 300 μM with the enzyme reaction buffer solution was dispensed into each well by 50 μL and allowed to stand at 37° C. for 90 minutes. At this time, negative control wells were dispensed with 1% DMSO, substrate, and autotaxin instead of the compound, and positive control wells were dispensed with 1% DMSO and substrate.

O=C(O)c1cccc(Cn2c(=O)n(-c3ccccc3)c3cc(Cl)ccc32)c1 [Example 1, 3-((5-chloro-2-oxo-3-phenyl-2,3-dihydro-1H-benzo[d]imidazol-1-yl)methyl)benzoic acid] and O=C(O)c1cccc(Cn2c(=O)n(-c3ccc(-c4ccccc4)cc3)c3cc(Cl)ccc32)c1 [Example 15, 3-((3-([1,1′-biphenyl]-4-yl)-5-chloro-2-oxo-2,3-dihydro-1H-benzo[d]imidazol-1-yl)methyl)benzoic acid] fall in the same range of IC50: 100 to 1000 nM for the first, 100 to 1000 nM for the second.

CCCc1ccc(-n2c(=O)n(Cc3cccc(C(=O)O)c3)c3ccc(Cl)cc32)cc1 [Example 2, 3-((5-chloro-2-oxo-3-(4-propylphenyl)-2,3-dihydro-1H-benzo[d]imidazol-1-yl)methyl)benzoic acid] and CCCCc1ccc(-n2c(=O)n(Cc3cccc(C(=O)O)c3)c3ccc(Cl)cc32)cc1 [Example 16, 3-((3-(4-butylphenyl)-5-chloro-2-oxo-2,3-dihydro-1H-benzo[d]imidazol-1-yl)methyl)benzoic acid] fall in the same range of IC50: 100 to 1000 nM for the first, 100 to 1000 nM for the second.

O=C(O)c1cccc(Cn2c(=O)n(-c3ccc(F)cc3)c3cc(Cl)ccc32)c1 [Example 3, 3-((5-chloro-3-(4-fluorophenyl)-2-oxo-2,3-dihydro-1H-benzo[d]imidazol-1-yl)methyl)benzoic acid] and Cc1ccc(-n2c(=O)n(Cc3cccc(C(=O)O)c3)c3ccc(Cl)cc32)cc1 [Example 8, 3-((5-chloro-2-oxo-3-(p-tolyl)-2,3-dihydro-1H-benzo[d]imidazol-1-yl)methyl)benzoic acid] fall in the same range of IC50: 100 to 1000 nM for the first, 100 to 1000 nM for the second.

O=C(O)c1cccc(Cn2c(=O)n(-c3ccc(C(F)(F)F)cc3)c3cc(Cl)ccc32)c1 [Example 4, 3-((5-chloro-2-oxo-3-(4-(trifluoromethyl)phenyl)-2,3-dihydro-1H-benzo[d]imidazol-1-yl)methyl)benzoic acid] and CC(C)(C)c1ccc(-n2c(=O)n(Cc3cccc(C(=O)O)c3)c3ccc(Cl)cc32)cc1 [Example 12, 3-((3-(4-(tert-butyl)phenyl)-5-chloro-2-oxo-2,3-dihydro-1H-benzo[d]imidazol-1-yl)methyl)benzoic acid] fall in the same range of IC50: 100 to 1000 nM for the first, 100 to 1000 nM for the second.

COc1ccc(-n2c(=O)n(Cc3cccc(C(=O)O)c3)c3ccc(Cl)cc32)cc1 [Example 5, 3-((5-chloro-3-(4-methoxyphenyl)-2-oxo-2,3-dihydro-1H-benzo[d]imidazol-1-yl)methyl)benzoic acid] and CCOc1ccc(-n2c(=O)n(Cc3cccc(C(=O)O)c3)c3ccc(Cl)cc32)cc1 [Example 20, 3-((5-chloro-3-(4-ethoxyphenyl)-2-oxo-2,3-dihydro-1H-benzo[d]imidazol-1-yl)methyl)benzoic acid] fall in the same range of IC50: 10 to 100 nM for the first, 10 to 100 nM for the second.

O=C(O)c1cccc(Cn2c(=O)n(-c3ccc(-c4ccc(Cl)cc4)cc3)c3cc(Cl)ccc32)c1 [Example 7, 3-((5-chloro-3-(4′-chloro-[1,1′-biphenyl]-4-yl)-2-oxo-2,3-dihydro-1H-benzo[d]imidazol-1-yl)methyl)benzoic acid] and O=C(O)c1cccc(Cn2c(=O)n(-c3ccc(O)cc3)c3cc(Cl)ccc32)c1 [Example 13, 3-((5-chloro-3-(4-hydroxyphenyl)-2-oxo-2,3-dihydro-1H-benzo[d]imidazol-1-yl)methyl)benzoic acid] fall in the same range of IC50: 100 to 1000 nM for the first, 100 to 1000 nM for the second.

First: O=C(O)c1cccc(Cn2c(=O)n(-c3ccc4c(c3)OCO4)c3cc(Cl)ccc32)c1 [Example 9, 3-((3-(benzo[d][1,3]dioxol-5-yl)-5-chloro-2-oxo-2,3-dihydro-1H-benzo[d]imidazol-1-yl)methyl)benzoic acid]
Second: CN(C)c1ccc(-n2c(=O)n(Cc3cccc(C(=O)O)c3)c3ccc(Cl)cc32)cc1 [Example 10, 3-((5-chloro-3-(4-(dimethylamino)phenyl)-2-oxo-2,3-dihydro-1H-benzo[d]imidazol-1-yl)methyl)benzoic acid]
The IC50 of the first is higher: 100 to 1000 nM for the first, 10 to 100 nM for the second. The second is the more potent here.

CC(C)C(=O)Nc1ccc(-n2c(=O)n(Cc3cccc(C(=O)O)c3)c3ccc(Cl)cc32)cc1 [Example 11, 3-((5-chloro-3-(4-isobutyramidophenyl)-2-oxo-2,3-dihydro-1H-benzo[d]imidazol-1-yl)methyl)benzoic acid] and CC(C)c1ccc(-n2c(=O)n(Cc3cccc(C(=O)O)c3)c3ccc(Cl)cc32)cc1 [Example 17, 3-((5-chloro-3-(4-isopropylphenyl)-2-oxo-2,3-dihydro-1H-benzo[d]imidazol-1-yl)methyl)benzoic acid] fall in the same range of IC50: 100 to 1000 nM for the first, 100 to 1000 nM for the second.

CC(C)Oc1ccc(-n2c(=O)n(Cc3cccc(C(=O)O)c3)c3ccc(Cl)cc32)cc1 [Example 14, 3-((5-chloro-3-(4-isopropoxyphenyl)-2-oxo-2,3-dihydro-1H-benzo[d]imidazol-1-yl)methyl)benzoic acid] and CC(C)(O)c1ccc(-n2c(=O)n(Cc3cccc(C(=O)O)c3)c3ccc(Cl)cc32)cc1 [Example 18, 3-((5-chloro-3-(4-(2-hydroxypropan-2-yl)phenyl)-2-oxo-2,3-dihydro-1H-benzo[d]imidazol-1-yl)methyl)benzoic acid] fall in the same range of IC50: 10 to 100 nM for the first, 10 to 100 nM for the second.

First: CS(=O)(=O)Nc1ccc(-n2c(=O)n(Cc3cccc(C(=O)O)c3)c3ccc(Cl)cc32)cc1 [Example 19, 3-((5-chloro-3-(4-(methylsulfonamido)phenyl)-2-oxo-2,3-dihydro-1H-benzo[d]imidazol-1-yl)methyl)benzoic acid]
Second: O=C(O)c1cccc(Cn2c(=O)n(-c3ccc(NS(=O)(=O)CC(F)(F)F)cc3)c3cc(Cl)ccc32)c1 [Example 26, 3-((5-chloro-2-oxo-3-(4-((2,2,2-trifluoroethyl)sulfonamido)phenyl)-2,3-dihydro-1H-benzo[d]imidazol-1-yl)methyl)benzoic acid]
The IC50 of the first is lower: 10 to 100 nM for the first, 100 to 1000 nM for the second.

First: CN(C)C(=O)c1ccc(-n2c(=O)n(Cc3cccc(C(=O)O)c3)c3ccc(Cl)cc32)cc1 [Example 21, 3-((5-chloro-3-(4-(dimethylcarbamoyl)phenyl)-2-oxo-2,3-dihydro-1H-benzo[d]imidazol-1-yl)methyl)benzoic acid]
Second: CNC(=O)c1ccc(-n2c(=O)n(Cc3cccc(C(=O)O)c3)c3ccc(Cl)cc32)cc1 [Example 22, 3-((5-chloro-3-(4-(methylcarbamoyl)phenyl)-2-oxo-2,3-dihydro-1H-benzo[d]imidazol-1-yl)methyl)benzoic acid]
The IC50 of the first is lower: < 10 nM for the first, 10 to 100 nM for the second. The first is the more potent here.

O=C(O)c1cccc(Cn2c(=O)n(-c3ccc(C(=O)NCC(F)(F)F)cc3)c3cc(Cl)ccc32)c1 [Example 23, 3-((5-chloro-2-oxo-3-(4-((2,2,2-trifluoroethyl)carbamoyl)phenyl)-2,3-dihydro-1H-benzo[d]imidazol-1-yl)methyl)benzoic acid] and O=C(O)c1cccc(Cn2c(=O)n(-c3ccc(OCC4CCC4)cc3)c3cc(Cl)ccc32)c1 [Example 27, 3-((5-chloro-3-(4-(cyclobutylmethoxy)phenyl)-2-oxo-2,3-dihydro-1H-benzo[d]imidazol-1-yl)methyl)benzoic acid] fall in the same range of IC50: 100 to 1000 nM for the first, 100 to 1000 nM for the second.

O=C(O)c1cccc(Cn2c(=O)n(-c3ccc(N4CCOCC4)cc3)c3c(F)c(Cl)ccc32)c1 [Example 24, 3-((5-chloro-4-fluoro-3-(4-morpholinophenyl)-2-oxo-2,3-dihydro-1H-benzo[d]imidazol-1-yl)methyl)benzoic acid] and CN(C)c1ccc(-n2c(=O)n(Cc3cccc(C(=O)O)c3)c3ccc(Cl)c(F)c32)cc1 [Example 25, 3-((5-chloro-3-(4-(dimethylamino)phenyl)-4-fluoro-2-oxo-2,3-dihydro-1H-benzo[d]imidazol-1-yl)methyl)benzoic acid] fall in the same range of IC50: 10 to 100 nM for the first, 10 to 100 nM for the second.

O=C(O)c1cccc(Cn2c(=O)n(-c3ccc(N4CCCCC4=O)cc3)c3cc(Cl)ccc32)c1 [Example 28, 3-((5-chloro-2-oxo-3-(4-(2-oxopiperidin-1-yl)phenyl)-2,3-dihydro-1H-benzo[d]imidazol-1-yl)methyl)benzoic acid] and O=C(O)c1cccc(Cn2c(=O)n(-c3ccc(N4CCCC4)cc3)c3cc(Cl)ccc32)c1 [Example 29, 3-((5-chloro-2-oxo-3-(4-(pyrrolidin-1-yl)phenyl)-2,3-dihydro-1H-benzo[d]imidazol-1-yl)methyl)benzoic acid] fall in the same range of IC50: 10 to 100 nM for the first, 10 to 100 nM for the second.

O=C(O)c1cccc(Cn2c(=O)n(-c3ccc(OCC4CCC4)c(F)c3)c3cc(Cl)ccc32)c1 [Example 30, 3-((5-chloro-3-(4-(cyclobutylmethoxy)-3-fluorophenyl)-2-oxo-2,3-dihydro-1H-benzo[d]imidazol-1-yl)methyl)benzoic acid] and O=C(O)c1ccc(F)c(Cn2c(=O)n(-c3ccccc3)c3cc(Cl)ccc32)c1 [Example 32, 3-((5-chloro-2-oxo-3-phenyl-2,3-dihydro-1H-benzo[d]imidazol-1-yl)methyl)-4-fluorobenzoic acid] fall in the same range of IC50: 100 to 1000 nM for the first, 100 to 1000 nM for the second.

Compared with CCCc1ccc(-n2c(=O)n(C3(c4cccc(C(=O)O)c4)CC3)c3ccc(Cl)cc32)cc1 [Example 31, 3-(1-(5-chloro-2-oxo-3-(4-propylphenyl)-2,3-dihydro-1H-benzo[d]imidazol-1-yl)cyclopropyl)benzoic acid], O=C(O)c1cc(Cn2c(=O)n(-c3ccccc3)c3cc(Cl)ccc32)ccc1F [Example 35, 5-((5-chloro-2-oxo-3-phenyl-2,3-dihydro-1H-benzo[d]imidazol-1-yl)methyl)-2-fluorobenzoic acid] is higher in IC50: 10 to 100 nM for the first, 100 to 1000 nM for the second. The first is the more potent here.

O=C(O)c1cccc(Cn2c(=O)n(-c3ccccc3)c3cc(Cl)ccc32)c1F [Example 33, 3-((5-chloro-2-oxo-3-phenyl-2,3-dihydro-1H-benzo[d]imidazol-1-yl)methyl)-2-fluorobenzoic acid] and O=C(O)c1cc(F)cc(Cn2c(=O)n(-c3ccccc3)c3cc(Cl)ccc32)c1 [Example 34, 3-((5-chloro-2-oxo-3-phenyl-2,3-dihydro-1H-benzo[d]imidazol-1-yl)methyl)-5-fluorobenzoic acid] fall in the same range of IC50: 100 to 1000 nM for the first, 100 to 1000 nM for the second.
